Laboratory results as given in PubChem BioAssay (NCI).
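Compound exposure: 48 hours, 5 concentrations, 96-well plates. TGI is the concentration that stops growth completely.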

How the values were obtained:
Experiment in all cases: DTP human tumour cell line panel, 48 h
RPMI-8226 leukemia = tested on: RPMI-8226 leukemia
K-562 leukemia = tested on: K-562 leukemia
HOP-92 NSCLC = tested on: HOP-92 NSCLC
OVCAR-4 ovarian = tested on: OVCAR-4 ovarian
SK-MEL-5 melanoma = tested on: SK-MEL-5 melanoma
MOLT-4 leukemia = tested on: MOLT-4 leukemia
OVCAR-3 ovarian = tested on: OVCAR-3 ovarian
HOP-62 NSCLC = tested on: HOP-62 NSCLC
EKVX NSCLC = tested on: EKVX NSCLC
M14 melanoma = tested on: M14 melanoma
HT29 colon = tested on: HT29 colon
COLO 205 colon = tested on: COLO 205 colon
SK-OV-3 ovarian = tested on: SK-OV-3 ovarian
CAKI-1 renal = tested on: CAKI-1 renal
NCI/ADR-RES ovarian = tested on: NCI/ADR-RES ovarian

Row | Structure (SMILES) | TGI (RPMI-8226 leukemia) [µM] | TGI (K-562 leukemia) [µM] | TGI (HOP-92 NSCLC) [µM] | TGI (OVCAR-4 ovarian) [µM] | TGI (SK-MEL-5 melanoma) [µM] | TGI (MOLT-4 leukemia) [µM] | TGI (OVCAR-3 ovarian) [µM] | TGI (HOP-62 NSCLC) [µM] | TGI (EKVX NSCLC) [µM] | TGI (M14 melanoma) [µM] | TGI (HT29 colon) [µM] | TGI (COLO 205 colon) [µM] | TGI (SK-OV-3 ovarian) [µM] | TGI (CAKI-1 renal) [µM] | TGI (NCI/ADR-RES ovarian) [µM]
1 | O=C1C(Cl)N(c2c(Cl)cccc2Cl)C1c1c[nH]c2ccccc12 (centres undefined) | > 100 | > 100 | > 100 | > 100 | > 100 | > 100 | > 100 | > 100 | > 100 | > 100 | > 100 | > 100 | > 100 |  | 
2 | O=[N+]([O-])c1ccc(SN=S=NSc2cccc(SN=S=NSc3ccc([N+](=O)[O-])cc3)c2)cc1 | > 100 | > 100 | > 100 | > 100 | > 100 | > 100 | > 100 | > 100 | > 100 | > 100 | > 100 | > 100 | > 100 | 41.1 | > 100
3 | CSc1ncnc2c1cnn2Cc1cnnn1COCC(O)CO (centres undefined) | > 100 | > 100 |  | > 100 | > 100 | > 100 | > 100 | > 100 | > 100 | > 100 | > 100 | > 100 | > 100 | > 100 | > 100
4 | C/C(=C/C(=O)Nc1ccccc1)Nc1onc(C)c1C | > 100 | > 100 | > 100 | > 100 | > 100 | > 100 | > 100 | > 100 | > 100 |  | > 100 | > 100 | > 100 |  | > 100
5 | Brc1ccc(C2C3CSc4ccccc4C3=NN2c2ccccc2)cc1 (centres undefined) | > 100 | > 100 | > 100 | 91.7 | > 100 | > 100 | > 100 | > 100 |  | > 100 | > 100 | > 100 | > 100 | > 100 | > 100
6 | O=NN1C(c2ccccc2)CNC(=O)CC1c1ccccc1 (centres undefined) | > 100 | > 100 | > 100 | > 100 | > 93.1 | > 93 | > 92.7 | > 100 | > 100 |  | > 100 | 69.8 | > 89 | > 100 | > 64.6
7 | CSc1ncnc2c1cnn2Cc1cn(COCCO)nn1 | > 100 | > 100 | > 100 | > 100 | > 100 |  | 59.1 | > 100 |  | > 100 | 55.4 | > 100 | > 100 |  | > 100
8 | O=C1OC(c2ccccc2)=NC1c1ccccc1 (centres undefined) | > 100 | > 100 | > 100 | > 100 | > 100 | > 100 | > 100 | > 100 | > 100 | > 100 | > 100 | > 100 | > 100 | > 100 | > 100
9 | CN(C)CCNc1ccc2ncn3c4ccccc4c(=O)c1c23 | > 100 | > 100 | 9.51 | 5 | 11.5 | > 100 | > 100 | 19.4 |  | 13.7 | 10.6 | 4.03 | 16.2 | 12.9 | 
10 | C1CNOCCCONCCCNOCCCONC1 |  | > 100 | 82.1 | > 100 | > 100 | > 100 | > 100 | > 100 | > 100 | > 100 | > 100 | > 100 | > 100 | > 100 | > 100
11 | N#C/C(=C\c1ccncc1)c1csc2ccccc12 | 52.3 | 50.8 | 51.7 | > 100 | 33.2 | 43.1 | 42.9 | 63.3 | > 100 |  | 48.2 | 35.9 | > 73.1 | > 88 | 61.8
12 | S=c1sc2c(s1)SC(c1ccccc1)CS2 (centres undefined) | > 100 | > 100 | > 100 | > 88.2 | > 100 | > 100 | > 100 | > 100 | > 100 |  | > 100 | > 100 | > 100 | > 100 | > 100
13 | O=C(NN1C(=O)C(Cl)C1c1ccccc1O)c1ccccc1O (centres undefined) | > 100 | > 100 | > 100 | > 100 | > 100 | > 100 | > 100 | > 100 | > 100 | > 100 | > 100 | > 100 | > 100 |  | 
14 | O=[N+]([O-])C(=C/c1ccccc1)/C(=C\c1ccccc1)[N+](=O)[O-] | 48.4 | > 100 | 39.8 | 38.1 | 30.2 | 19.5 | 45.3 | 40 | 34 | 41.6 | 31.4 | 40 | 48.2 | 29 | 42.8
15 | Cc1c(O)c(=O)ccn1CCN | > 100 | > 100 | > 100 | > 100 |  | > 100 |  |  | > 100 | > 100 | > 100 | > 100 | > 100 | > 100 | 
16 | NS(=O)(=O)c1ccc(NC(=O)N/N=C/c2ccccc2O)cc1 | > 100 | > 100 | > 100 | > 100 | > 100 | > 100 | > 100 | > 100 | > 100 | > 100 | > 100 | > 100 | > 100 | > 100 | > 100
